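In this assay, cells in 96-well plates receive the compound at five concentrations for 48 hours. Endpoints are linearly interpolated between the surrounding concentrations. GI50 = concentration required for 50% inhibition of growth.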 The source made the active and inactive calls. Rule as the data show it: active = GI50 up to about 1.1 µM and inactive = higher.
Legend:
Test in all cases: inhibition of tumour cell growth, NCI panel, 48 h
HOP-62 = test system: HOP-62
NCI-H23 = test system: NCI-H23
HCT-15 = test system: HCT-15
HL-60 = test system: HL-60
SK-MEL-2 = test system: SK-MEL-2
A498 = test system: A498
NCI-H460 = test system: NCI-H460
SNB-75 = test system: SNB-75
HT-29 = test system: HT-29
HOP-92 = test system: HOP-92
UACC-62 = test system: UACC-62
NCI-H522 = test system: NCI-H522
KM12 = test system: KM12
SK-MEL-28 = test system: SK-MEL-28
OVCAR-3 = test system: OVCAR-3
NCI/ADR-RES = test system: NCI/ADR-RES
OVCAR-4 = test system: OVCAR-4
CCRF-CEM = test system: CCRF-CEM
RPMI-8226 = test system: RPMI-8226

SMILES	GI50 (HOP-62)	GI50 (NCI-H23)	GI50 (HCT-15) [µM]	GI50 (HL-60)	GI50 (SK-MEL-2)	GI50 (A498)	GI50 (NCI-H460)	GI50 (SNB-75)	GI50 (HT-29)	GI50 (HOP-92)	GI50 (UACC-62)	GI50 (NCI-H522)	GI50 (KM12)	GI50 (SK-MEL-28)	GI50 (OVCAR-3)	GI50 (NCI/ADR-RES)	GI50 (OVCAR-4)	GI50 (CCRF-CEM)	GI50 (RPMI-8226)
CCOC(=O)C1=C(C)NC(=O)NC1c1ccc(N(CCCl)CCCl)cc1Cl (stereo not drawn)	15.2 µM (inactive)	18.7 µM (inactive)	17.1	1.73 µM (inactive)	16.3 µM (inactive)	15.9 µM (inactive)	13 µM (inactive)	14.9 µM (inactive)	16 µM (inactive)	13 µM (inactive)	10.6 µM (inactive)	13.6 µM (inactive)	19.7 µM (inactive)	17.6 µM (inactive)	15.5 µM (inactive)	16.7 µM (inactive)	17.2 µM (inactive)	–	–
O=C(/C=C/c1ccccc1Cl)c1cccc2ccccc12	14.3 µM (inactive)	12.6 µM (inactive)	3.75	10.4 µM (inactive)	18.4 µM (inactive)	14.4 µM (inactive)	2.82 µM (inactive)	6.97 µM (inactive)	10.4 µM (inactive)	20.3 µM (inactive)	15.2 µM (inactive)	6.65 µM (inactive)	5.24 µM (inactive)	13.7 µM (inactive)	4.4 µM (inactive)	–	4.81 µM (inactive)	4.82 µM (inactive)	17.2 µM (inactive)
O=C(c1ccc([N+](=O)[O-])cc1)C(Br)C(Br)c1ccnc2ccccc12 (stereo not drawn)	13.9 µM (inactive)	2.55 µM (inactive)	6.76	2.8 µM (inactive)	12.6 µM (inactive)	3.99 µM (inactive)	4.5 µM (inactive)	4.06 µM (inactive)	2.9 µM (inactive)	13.8 µM (inactive)	9.4 µM (inactive)	1.86 µM (inactive)	1.91 µM (inactive)	11.1 µM (inactive)	6.32 µM (inactive)	8.45 µM (inactive)	11.7 µM (inactive)	0.352 µM (active)	2.23 µM (inactive)
C[C@]12CC[C@H](OC(=O)Cc3ccc(N(CCCl)CCCl)cc3)CC1CC[C@@H]1C2CC[C@]2(C)NC(=O)CCC12 (stereo partly drawn)	> 10 µM (inactive)	11.8 µM (inactive)	13.9	2.48 µM (inactive)	25.5 µM (inactive)	18.9 µM (inactive)	5.16 µM (inactive)	10.1 µM (inactive)	1.87 µM (inactive)	15.6 µM (inactive)	6.68 µM (inactive)	10.7 µM (inactive)	11 µM (inactive)	15 µM (inactive)	4.04 µM (inactive)	–	12.2 µM (inactive)	3.54 µM (inactive)	4.16 µM (inactive)
CCCCCCCCCCCCCC(=O)OCC1OC(n2cc(F)c(=O)[nH]c2=O)C(N)C(OC(=O)CCCCCCCCCCCCC)C1O (stereo not drawn)	> 100 µM (inactive)	> 100 µM (inactive)	> 100	> 100 µM (inactive)	> 100 µM (inactive)	> 100 µM (inactive)	> 100 µM (inactive)	> 100 µM (inactive)	> 100 µM (inactive)	> 100 µM (inactive)	> 100 µM (inactive)	> 100 µM (inactive)	> 100 µM (inactive)	> 100 µM (inactive)	> 100 µM (inactive)	–	> 100 µM (inactive)	> 10 µM (inactive)	> 100 µM (inactive)
COC(=O)C[C@H]1CCC2(OCCO2)[C@]1(C)C(=O)OC	> 100 µM (inactive)	> 100 µM (inactive)	> 100	> 100 µM (inactive)	> 100 µM (inactive)	> 100 µM (inactive)	> 100 µM (inactive)	> 100 µM (inactive)	> 100 µM (inactive)	> 100 µM (inactive)	> 100 µM (inactive)	> 100 µM (inactive)	> 100 µM (inactive)	> 100 µM (inactive)	> 100 µM (inactive)	–	> 100 µM (inactive)	> 100 µM (inactive)	> 100 µM (inactive)
CCN(CC)CCCCC1CCN(CC(=O)N2c3ccccc3NC(=O)CC2C)CC1 (stereo not drawn)	> 100 µM (inactive)	> 100 µM (inactive)	> 100	64.1 µM (inactive)	> 100 µM (inactive)	> 100 µM (inactive)	> 100 µM (inactive)	> 100 µM (inactive)	> 100 µM (inactive)	> 100 µM (inactive)	> 100 µM (inactive)	30.3 µM (inactive)	> 100 µM (inactive)	> 100 µM (inactive)	> 100 µM (inactive)	–	> 100 µM (inactive)	65.8 µM (inactive)	88.1 µM (inactive)
COc1ccc(C(=O)C2=NON3OC23C(=O)c2ccc(OC)cc2)cc1 (stereo not drawn)	> 100 µM (inactive)	13.2 µM (inactive)	15.5	2.18 µM (inactive)	19.5 µM (inactive)	13.7 µM (inactive)	20.6 µM (inactive)	24.7 µM (inactive)	22.4 µM (inactive)	2.59 µM (inactive)	17.8 µM (inactive)	1.82 µM (inactive)	19.2 µM (inactive)	17.9 µM (inactive)	9.59 µM (inactive)	–	5.74 µM (inactive)	2.34 µM (inactive)	3.37 µM (inactive)
CC1=NN(C(=O)CC(=O)N(C(=O)c2ccccc2Cl)c2ccc(C)cc2)C(=O)C1/N=N/c1ccc([N+](=O)[O-])cc1 (stereo not drawn)	53.5 µM (inactive)	47.3 µM (inactive)	> 43.8	> 51.9 µM (inactive)	> 100 µM (inactive)	> 58.5 µM (inactive)	> 47.3 µM (inactive)	> 43.6 µM (inactive)	> 63.4 µM (inactive)	36.6 µM (inactive)	21.6 µM (inactive)	> 100 µM (inactive)	> 65.5 µM (inactive)	> 100 µM (inactive)	> 64.7 µM (inactive)	–	67.9 µM (inactive)	> 49.8 µM (inactive)	> 50.4 µM (inactive)
O=C(/C=C/c1ccccc1O)c1ccccc1O	> 100 µM (inactive)	76.2 µM (inactive)	35.9	> 100 µM (inactive)	80.9 µM (inactive)	> 100 µM (inactive)	> 100 µM (inactive)	> 100 µM (inactive)	> 100 µM (inactive)	46.7 µM (inactive)	> 100 µM (inactive)	> 100 µM (inactive)	> 100 µM (inactive)	> 100 µM (inactive)	> 100 µM (inactive)	–	> 100 µM (inactive)	5.74 µM (inactive)	40 µM (inactive)
CSC(=S)NN=C1CCCCC1	47.3 µM (inactive)	29.9 µM (inactive)	29.9	–	52.6 µM (inactive)	> 100 µM (inactive)	32.1 µM (inactive)	50.6 µM (inactive)	47.6 µM (inactive)	> 100 µM (inactive)	18.7 µM (inactive)	24.8 µM (inactive)	28.7 µM (inactive)	37.8 µM (inactive)	22.3 µM (inactive)	24.7 µM (inactive)	34.3 µM (inactive)	26.1 µM (inactive)	0.165 µM (active)
